Assay results as given in ChEMBL document CHEMBL6078688, “Discovery of Novel MyD88 Inhibitor A5S to Alleviate Acute Lung Injury with Favorable Drug-like Properties” (J Med Chem, 2024).
Calls of active or inactive are those of the source. The rule behind the calls is not given here.

Key:
Mus musculus [1] = experiment: Antiinflammatory activity against LPS induced acute lung injury C57BL/6 mouse model assessed as reduction in TNF-alpha level in BALF at 20 mg/kg,po administrated with compound for 30 mins followed by LPS treatment and measured after 6 hrs by ELISA; type: functional, organism-based; conditions: time 6.5 hrs
Mus musculus [2] = experiment: Antiinflammatory activity in cecal ligation and puncture induced sepsis C57BL/6 mouse model assessed as reduction in neutrophil infiltration in lung at 20 mg/kg,po administrated with compound for 6 hrs followed by CLP induction and measured after 12 hrs by immunohistochemical staining based analysis; type: functional, organism-based; conditions: time 18.0 hrs
[3] = target: Toll-like receptor 4/Ly96 (Mus musculus) (UniProt Q9QUK6+Q9JHF9); experiment: Inhibition of MD2/TLR4 protein-protein interaction in LPS-induced mouse J774.A1 cells at 20 uM incubated for 2 hrs by coimmunoprecipitation analysis; type: cell-based
Mus musculus [4] = experiment: Antiinflammatory activity against LPS induced acute lung injury C57BL/6 mouse model assessed as reduction in spleen weight at 20 mg/kg,po administrated with compound for 30 mins followed by LPS treatment and measured after 6 hrs; type: functional, organism-based; conditions: time 6.5 hrs
Mus musculus [5] = experiment: Antiinflammatory activity against LPS induced acute lung injury C57BL/6 mouse model assessed as reduction in total protein concentration in BALF at 20 mg/kg,po administrated with compound for 30 mins followed by LPS treatment and measured after 6 hrs; type: functional, organism-based; conditions: time 6.5 hrs
[6] = Stability of compound in enzyme free simulated intestinal fluid measured upto 12 hrs; type: physicochemical; conditions: simulated gi fluid
Mus musculus [7] = experiment: Antiinflammatory activity in cecal ligation and puncture induced sepsis C57BL/6 mouse model assessed as reduction in IL-6 level in BALF at 20 mg/kg,po administrated with compound for 6 hrs followed by CLP induction and measured after 12 hrs by ELISA; type: functional, organism-based; conditions: time 18.0 hrs
[8] = Stability of compound in enzyme free simulated gastric fluid measured upto 12 hrs; type: physicochemical; conditions: simulated gi fluid
Mus musculus [9] = experiment: Antiinflammatory activity against LPS induced acute lung injury C57BL/6 mouse model assessed as reduction in IL-6 level in serum at 20 mg/kg,po administrated with compound for 30 mins followed by LPS treatment and measured after 6 hrs by ELISA; type: functional, organism-based; conditions: time 6.5 hrs
Mus musculus [10] = experiment: Antiinflammatory activity in cecal ligation and puncture induced sepsis C57BL/6 mouse model assessed as reduction in cell effusion in BALF at 20 mg/kg,po administrated with compound for 6 hrs followed by CLP induction and measured after 12 hrs; type: functional, organism-based; conditions: time 18.0 hrs
[11] = Drug concentration in Sprague-Dawley rat serum at 1 mg/kg,iv administration measured upto 24 hrs by LC-MS/MS analysis; type: ADME, organism-based; conditions: read-out: Ct
[12] = Stability of compound in simulated gastric fluid measured upto 12 hrs; type: physicochemical; conditions: simulated gi fluid
Mus musculus [13] = experiment: Antiinflammatory activity against LPS induced acute lung injury C57BL/6 mouse model assessed as reduction in pulmonary edema by measuring reduction of lung wet to dry ratio at 20 mg/kg,po administrated measured after 48 hrs; type: functional, organism-based
Mus musculus [14] = experiment: Antiinflammatory activity in cecal ligation and puncture induced sepsis C57BL/6 mouse model assessed as reduction in interstitial edema in lung at 20 mg/kg,po administrated with compound for 6 hrs followed by CLP induction and measured after 12 hrs by H and E staining based analysis; type: functional, organism-based; conditions: time 18.0 hrs
J774.A1 [15] = experiment: Anti-inflammatory activity in LPS-induced mouse J774.A1 cells assessed as inhibition of TNF-alpha production by ELISA; type: functional, cell-based
Mus musculus [16] = experiment: Antiinflammatory activity in cecal ligation and puncture induced sepsis C57BL/6 mouse model assessed as reduction in pulmonary congestion in lung at 20 mg/kg,po administrated with compound for 6 hrs followed by CLP induction and measured after 12 hrs by H and E staining based analysis; type: functional, organism-based; conditions: time 18.0 hrs
[17] = target: T1, Myeloid differentiation primary response protein MyD88 (Homo sapiens, UniProt Q99836); experiment: Binding affinity to CM5 sensor chip immobilized human MyD88 DD domain assessed as dissociation constant by SPR analysis
Mus musculus [18] = experiment: Antiinflammatory activity in cecal ligation and puncture induced sepsis C57BL/6 mouse model assessed as reduction in inflammatory infiltration in lung at 20 mg/kg,po administrated with compound for 6 hrs followed by CLP induction and measured after 12 hrs by H and E staining based analysis; type: functional, organism-based; conditions: time 18.0 hrs
[19] = Acute toxicity in C57BL/6 mouse assessed as weight loss at 500 mg/kg,po administration measured after 3 days; type: organism-based; conditions: in vivo, 72 h, time 3 day
[20] = Drug concentration in Sprague-Dawley rat lung at 20 mg/kg,po administration measured upto 8 hrs by LC-MS/MS analysis; type: ADME, organism-based; conditions: in vivo
[21] = AUC (0 to t) in Sprague-Dawley rat at 20 mg/kg,po administration measured upto 24 hrs by LC-MS/MS analysis; type: ADME, organism-based; conditions: in vivo
[22] = AUC (0 to infinity) in Sprague-Dawley rat at 20 mg/kg,po administration measured upto 24 hrs by LC-MS/MS analysis; type: ADME, organism-based; conditions: in vivo
[23] = target: T1, Myeloid differentiation primary response protein MyD88; experiment: Binding affinity to CM5 sensor chip immobilized human MyD88 TIR domain assessed as dissociation constant by SPR analysis
J774.A1 [24] = experiment: Inhibition of MAPK signalling pathway in LPS stimulated mouse J774.A1 cells assessed as downregulation of p38 phosphorylation by Western blotting analysis; type: cell-based

T1 sequence (Q99836 whole entry, the tested form may be a part): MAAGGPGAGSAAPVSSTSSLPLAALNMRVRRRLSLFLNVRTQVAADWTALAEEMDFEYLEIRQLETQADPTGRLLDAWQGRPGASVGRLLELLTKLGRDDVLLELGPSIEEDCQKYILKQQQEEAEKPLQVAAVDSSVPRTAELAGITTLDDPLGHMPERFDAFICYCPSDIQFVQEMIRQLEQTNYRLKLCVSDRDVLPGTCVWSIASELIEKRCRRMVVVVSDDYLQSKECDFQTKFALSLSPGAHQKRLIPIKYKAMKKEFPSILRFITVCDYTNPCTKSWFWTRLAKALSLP

O[C@H](COc1ccc(Br)cc1)CN1CCN(Cc2cc3ccccc3[nH]2)CC1
Activity (Mus musculus [1]): Active | Activity (Mus musculus [2]): Active | inhibition [3]: inactive | Activity (Mus musculus [4]): Active | Activity (Mus musculus [5]): Active | Stability [6]: Stable | Activity (Mus musculus [7]): Active | Stability [8]: Stable | Activity (Mus musculus [9]): Active | Activity (Mus musculus [10]): Active | concentration at 24 h [11]: 1080 ng/mL | Stability [12]: Stable | Activity (Mus musculus [13]): Active | Activity (Mus musculus [14]): Active | IC50 (J774.A1 [15]): 3.28 µM | Activity (Mus musculus [16]): Active | Activity [17]: inactive | Activity (Mus musculus [18]): Active | Activity [19]: Toxic | Drug uptake [20]: Active | AUC(0-t) at 24 h [21]: 2860 ng·h/mL | AUC(0-inf) [22]: 3200 ng·h/mL | Kd [23]: 15 µM | inhibition (J774.A1 [24]): Active
